Reference: patent publication US9682999B2, “Benzofuran compounds for the treatment of hepatitis C virus infections” (Glaxo Group Limited, priority 2011, dated 2017)
Read-outs that look alike come from different tables or passages of the source.

Columns and labels:
[1] = system: sub-genomic HCV NS3-NS5B replicon genotype 1b (Huh-7 cells); assay: Replicon luciferase cell based assay, genotype 1b; conditions: Hepatitis C virus; Huh-7 genotype 1b luciferase replicon, 48 hours; read-out: EC50 GT1b
Experimental: (§1) 150 μL of a 1 mM stock solution in DMSO of each test compound was transferred into in the first column of a 96 well, V-bottom microplate, to give 200 times the top concentration of the required dilution series. Aliquots of 50 μL were added to each well of the remaining rows containing 100 μL of DMSO giving a 1:3 dilution series over ten points. Columns 11 and 12 contained DMSO only for the positive and negative control, respectively. 10 μL of each well were transferred into 90 μL of DMEM medium (Invitrogen #41965-039) supplemented with 5% v/v foetal calf serum, 1% v/v non-essential amino acids solution, 100 units/ml penicillin, 100 μg/ml streptomycin and 2 mM L-glutamine to give 20 times the top concentration of the required dilution series.
(§2) Suspensions were prepared from cultures of Huh-7 cells stably transfected with sub-genomic HCV NS3-NS5B replicons of either genotype 1b (the ET subline described by Pietschmann, T., Lohmann, V., Kaul, A., Krieger, N., Rinck, G., Rutter, G., Strand, D. & Bartenschlager, R., Journal of Virology, 2002, 76, 4008-4021), genotype 1a (subline 1.19 constructed in-house from H77 SG-Neo containing adaptive mutations P1496L and S2204I as described by Blight, K. J., McKeating, J. A., Marcotrigiano, J., and Rice, C. M. Journal of Virology, 2003, 77, 3180-3190), genotype 1b C316N (constructed in-house by site directed mutagenesis of the NS5B gene of the ET subline), or genotype 1a C316Y (constructed in-house by site directed mutagenesis of the NS5B gene of H77 SG-Neo containing adaptive mutations P1496L and S2204I as described by Blight, K. J., McKeating, J. A., Marcotrigiano, J., and Rice, C. M. Journal of Virology, 2003, 77, 3180-3190) linked to a firefly luciferase reporter gene. Monolayers nearing confluency were stripped from growth flasks with versene-trypsin solution and the cells re-suspended in assay medium comprising DMEM. 95 μL of suspension containing either 15,000 cells (genotype 1b luciferase replicon) or 20,000 cells (genotype 1a luciferase replicon) were added to all wells of a 96 well plate (Perkin Elmer, #6005686), except medium controls in column 12 of the assay plate. The cell suspension was dosed with 5 μL of compound solution and the plate was incubated for 48 hours at 37° C. in a 5% CO2 atmosphere.
(§3) For toxicity the cells in one plate were treated with Cell Titer Glo (Promega, #G7573). A solution of Cell Titer Glo was prepared according to the manufacturer's instructions, and 100 μL added to each well. The plate was then read for luminescence on an Envision. For potency a solution of Steady Glo (Promega, #E2550) was prepared according to the manufacturer's instructions and 100 μL added to each well. After a twenty minute incubation the plate was then read for luminescence on an Envision.
(§4) Potency: The luminescence values from all compound-free wells containing cells were averaged to obtain a positive control value. The mean luminescence value from the compound-free wells that had received no cells was used to provide the negative (background) control value. The readings from the wells at each compound concentration were taken and after the subtraction of the mean background from all values, were expressed as a percentage of the positive control signal. The quantifiable and specific reduction of luciferase signal in the presence of a drug is a direct measure of replicon inhibition. BioAssay Enterprise (CamebridgeSoft) with the XC50 module for curve fitting was used to plot the curve of percentage inhibition against compound concentration and derive the 50% inhibitory concentration (EC50) for the compound. EC50 is the effective concentration, that is, the concentration of compound where 50% maximal effect is observed. The EC50 values of two identical plates were averaged. The results are presented in Table 1 as EC50 for genotypes (GT) 1a, 1b, 1b 316N and 1a 316Y.

[2] = system: sub-genomic HCV NS3-NS5B replicon genotype 1a C316Y (Huh-7 cells); assay: Replicon luciferase cell based assay, genotype 1a C316Y; conditions: Hepatitis C virus, Huh-7, 48 h, read-out: EC50 1a 316Y
Experimental: as §1, §2, §3, §4

[3] = system: sub-genomic HCV NS3-NS5B replicon genotype 1b C316N (Huh-7 cells); assay: Replicon luciferase cell based assay, genotype 1b C316N; conditions: read-out: EC50 1b 316N
Experimental: as §1, §2, §3, §4

[4] = system: sub-genomic HCV NS3-NS5B replicon genotype 1a (Huh-7 cells); assay: Replicon luciferase cell based assay, genotype 1a; conditions: Huh-7 genotype 1a luciferase replicon, 48 hours, read-out: EC50 GT 1a
Experimental: as §1, §2, §3, §4

[5] = In vivo pharmacokinetic study, rat
Experimental: In vivo pharmacokinetic studies were conducted in mouse, rat, dog, or cynomolgus monkey to determine clearance, oral exposure and bioavailability (% F). Solution doses of the compounds were administered intravenously through catheters or orally by gavage. Blood samples were collected at the following time points (n=2 or 3/route/species): 0.083 (IV only), 0.167 (IV only), 0.25, 0.5, 1, 2, 4, 6, 8, 12, and 24 h. Non-compartmental pharmacokinetic parameters were determined using Phoenix Winnonlin 6.1 (Pharsight, Mountain View, Calif.). Bioavailability of the oral formulation of each compound were calculated as the ratio of the oral dose normalized AUCinf to the intravenous dose normalized AUCinf. Results are expressed in Table 2.

Compound | EC50 [1] [nM] | EC50 [2] [nM] | EC50 ([3]; Hepatitis C virus, Huh-7, 48 h) [nM] | EC50 ([4]; Hepatitis C virus) [nM] | also measured
CNC(=O)c1c(-c2ccc(Cl)cc2)oc2cc(N(c3ccc(B(O)O)c(C#N)c3)S(C)(=O)=O)c(C3CC3)cc12 [Example 21, (4-(N-(2-(4-Chlorophenyl)-5-cyclopropyl-3-(methylcarbamoyl)benzofuran-6-yl)methylsulfonamido)-2-cyanophenyl)boronic acid] | 1 to 10 | 1 to 10 | 1 to 10 | 1 to 10 | –
CNC(=O)c1c(-c2ccc(F)cc2)oc2cc(N(c3cccc(B(O)O)c3)S(C)(=O)=O)c(C3CC3)cc12 [Example 4, 3-(N-(5-cyclopropyl-2-(4-fluorophenyl)-3-(methylcarbamoyl)benzofuran-6-yl)methylsulfonamido)phenylboronic acid] | 1 to 10 | > 1000 | 11 to 200 | 1 to 10 | –
CNC(=O)c1c(-c2ccc(F)cc2)oc2cc(N(c3ccc4c(c3)COB4O)S(C)(=O)=O)c(C3CC3)cc12 [Example 20, 5-Cyclopropyl-2-(4-fluorophenyl)-6-(N-(1-hydroxy-1,3-dihydrobenzo[c][1,2]oxaborol-5-yl)methylsulfonamido)-N-methylbenzofuran-3-carboxamide] | 1 to 10 | 11 to 200 | 1 to 10 | 1 to 10 | –
CNC(=O)c1c(-c2ccc(Cl)cc2)oc2cc(N(c3ccc(B(O)O)c(F)c3)S(C)(=O)=O)c(C3CC3)cc12 [Example 7, 4-(N-(2-(4-chlorophenyl)-5-cyclopropyl-3-(methylcarbamoyl)benzofuran-6-yl)methylsulfonamido)-2-fluorophenylboronic acid] | 1 to 10 | 11 to 200 | 1 to 10 | 1 to 10 | –
CNC(=O)c1c(-c2ccc(F)cc2)oc2cc(N(c3cccc(CCB(O)O)c3)S(C)(=O)=O)c(C3CC3)cc12 [Example 26, (3-(N-(5-Cyclopropyl-2-(4-fluorophenyl)-3-(methylcarbamoyl)benzofuran-6-yl)methylsulfonamido)phenethyl)boronic acid] | 1 to 10 | 200 to 1000 | 11 to 200 | 1 to 10 | –
CNC(=O)c1c(-c2ccc(F)cc2)oc2cc(N(c3ccc(B(O)O)c(S(C)(=O)=O)c3)S(C)(=O)=O)c(C3CC3)cc12 [Example 16, (4-(N-(5-cyclopropyl-2-(4-fluorophenyl)-3-(methylcarbamoyl)benzofuran-6-yl)methylsulfonamido)-2-(methylsulfonyl)phenyl)boronic acid] | 1 to 10 | 11 to 200 | 11 to 200 | 1 to 10 | –
CNC(=O)c1c(-c2ccc(F)cc2)oc2cc(N(c3ccc(B(O)O)cc3)S(C)(=O)=O)c(C3CC3)cc12 [Example 3, 4-(N-(5-cyclopropyl-2-(4-fluorophenyl)-3-(methylcarbamoyl)benzofuran-6-yl)methylsulfonamido)phenylboronic acid] | 1 to 10 | 200 to 1000 | 1 to 10 | 1 to 10 | –
CNC(=O)c1c(-c2ccc(F)cc2)oc2cc(N(c3ccc(B4OC(C)(C)C(C)(C)O4)c(C)c3)S(C)(=O)=O)c(C3CC3)cc12 [Example 22, 5-Cyclopropyl-2-(4-fluorophenyl)-N-methyl-6-(N-(3-methyl-4-(4,4,5,5-tetramethyl-1,3,2-dioxaborolan-2-yl)phenyl)methylsulfonamido)benzofuran-3-carboxamide] | 1 to 10 | 200 to 1000 | 1 to 10 | 1 to 10 | –
CNC(=O)c1c(-c2ccc(F)cc2)oc2cc(N(c3ccc4c(c3)CCOB4O)S(C)(=O)=O)c(C3CC3)cc12 [Example 30] | 1 to 10 | – | 1 to 10 | 1 to 10 | –
CNC(=O)c1c(-c2ccc(F)cc2)oc2cc(N(c3ccc(C4CCB(O)O4)c(Cl)c3)S(C)(=O)=O)c(C3CC3)cc12 (single isomer, unassigned; enantiomer 2) [Example 29, 6-(N-(3-Chloro-4-(2-hydroxy-1,2-oxaborolan-5-yl)phenyl)methylsulfonamido)-5-cyclopropyl-2-(4-fluorophenyl)-N-methylbenzofuran-3-carboxamide, enantiomer 2] | – | – | – | – | EC50 ([3]; Huh-7 genotype 1b C316N luciferase replicon, 48 hours): 11 to 200 nM; EC50 [4]: 1 to 10 nM
CS(=O)(=O)N(c1ccc(B(O)O)c(Cl)c1)c1cc2oc(-c3ccc(Cl)cc3)c(C(N)=O)c2cc1C1CC1 [Example 14, (4-(N-(3-carbamoyl-2-(4-chlorophenyl)-5-cyclopropylbenzofuran-6-yl)methylsulfonamido)-2-chlorophenyl)boronic acid] | 1 to 10 | 11 to 200 | 1 to 10 | 1 to 10 | –
CNC(=O)c1c(-c2ccc(F)cc2)oc2cc(N(c3ccc(B(O)O)c(C(F)(F)F)c3)S(C)(=O)=O)c(C3CC3)cc12 [Example 10, (4-(N-(5-cyclopropyl-2-(4-fluorophenyl)-3-(methylcarbamoyl)benzofuran-6-yl)methylsulfonamido)-2-(trifluoromethyl)phenyl)boronic acid] | 1 to 10 | 11 to 200 | 1 to 10 | 1 to 10 | –
CS(=O)(=O)N(c1ccc(B(O)O)c(Cl)c1)c1cc2oc(-c3ccc(Cl)cc3)c(C(=O)O)c2cc1C1CC1 [Example 13, 6-(N-(4-borono-3-chlorophenyl)methylsulfonamido)-2-(4-chlorophenyl)-5-cyclopropylbenzofuran-3-carboxylic acid] | > 1000 | – | > 1000 | > 1000 | –
CNC(=O)c1c(-c2ccc(F)cc2)oc2cc(N(c3ccc(OCB(O)O)cc3)S(C)(=O)=O)c(C3CC3)cc12 [Example 18, ((4-(N-(5-Cyclopropyl-2-(4-fluorophenyl)-3-(methylcarbamoyl)benzofuran-6-yl)methylsulfonamido)phenoxy)methyl)boronic acid] | 1 to 10 | 11 to 200 | 11 to 200 | – | –
CNC(=O)c1c(-c2ccc(F)cc2)oc2cc(N(c3ccc(B(O)O)cn3)S(C)(=O)=O)c(C3CC3)cc12 [Example 8, 6-(N-(5-cyclopropyl-2-(4-fluorophenyl)-3-(methylcarbamoyl)benzofuran-6-yl)methylsulfonamido)pyridin-3-ylboronic acid] | > 1000 | – | > 1000 | > 1000 | –
CNC(=O)c1c(-c2ccc(Cl)cc2)oc2cc(N(Cc3ccc(B(O)O)c(F)c3)S(C)(=O)=O)c(C3CC3)cc12 [C] | – | – | – | – | DNAUC ([5]; Rat): 434 ng·h/mL/mg/kg; T 1/2 ([5]; Rat): 1.8 H; clearance ([5]; rat, blood, intravenous): 15.6 mL/min/kg; Vd ([5]; rat, blood, intravenous, read-out: Vss): 1.1 L/kg; bioavailability ([5]; rat, blood, oral): 40%
